Data: PMC13360702, “An Agonist/Antagonist Photo‐Switchable Vitamin D Mimetic Enables Bidirectional Optical Control of VDR” (Angewandte Chemie (International Ed. in English), 2026)

Assays:
[1] = test system: nuclear receptors related to VDR; assay: panel of uniform Gal4‐NR hybrid reporter gene assays (selectivity); assay type: cell-based, human; conditions: 1 µM; both (E)‐ and (Z)‐configuration; (Z) maintained with Cell‐Disco (370 nm)
Description: (§1) FIGURE 2 Development and characterization of the light‐activated vitamin D mimetic photo‐vitD (10). (a) Structure activity relationship of photo‐switchable VDR agonists 4–10. Compounds were tested in a cellular Gal4‐VDR hybrid reporter gene assay. Relative activation is normalized to the effect of 2 (1 µM) set as 100% activation. The (Z)‐states of the compounds were maintained with a Cell‐Disco [24] (370 nm). […] Data in agonist (EC50) and antagonist mode (IC50; vs. 0.3 µM 2) are shown for (E)‐ and (Z)‐10. The corresponding dose‐response curves are shown in (d). (b) Predicted binding mode of (E)‐7 (green) in the VDR ligand binding site (pdb ID 4g1d). […] (c) Predicted binding mode of (Z)‐10 (yellow) in the VDR ligand binding site. The altered regiochemistry conveys strong preference for the light‐induced (Z)‐configuration and the extended naphthoic acid motif enables a strong ionic contact to R302. (d) Dose‐response curves of (E)‐ (dark) and (Z)‐10 (370 nm) in the Gal4‐VDR reporter gene assay in agonist (top) and antagonist mode (bottom, with 0.3 µM calcitriol (2)). (Z)‐10 activated VDR; (E)‐10 and (Z)‐10 antagonized VDR activation by 0.3 µM calcitriol (2). (Z)‐10 was maintained with a Cell‐Disco [24] (370 nm). […] Absorbance was measured at 351 nm with a 25 µM solution in DMSO, one cycle is 30 sec. […] (E)/(Z) ratios were measured by NMR. […]

VDR = molecular target: T1, VDR (Homo sapiens, UniProt P11473); assay: Gal4‐VDR hybrid reporter gene assay, antagonist mode (vs. 0.3 µM calcitriol (2)); assay type: cell-based; conditions: dark‐adapted (E)‐state; vs. 0.3 µM 2 (calcitriol); read-out: VDR modulation dark (E): IC50 (antagonist mode)
T1 construct: -CMV-VDR-LBD coding for the hinge region and; expressed in transfected cells; host or cells: HEK293T
T1 sequence (P11473 127-423 limits assumed): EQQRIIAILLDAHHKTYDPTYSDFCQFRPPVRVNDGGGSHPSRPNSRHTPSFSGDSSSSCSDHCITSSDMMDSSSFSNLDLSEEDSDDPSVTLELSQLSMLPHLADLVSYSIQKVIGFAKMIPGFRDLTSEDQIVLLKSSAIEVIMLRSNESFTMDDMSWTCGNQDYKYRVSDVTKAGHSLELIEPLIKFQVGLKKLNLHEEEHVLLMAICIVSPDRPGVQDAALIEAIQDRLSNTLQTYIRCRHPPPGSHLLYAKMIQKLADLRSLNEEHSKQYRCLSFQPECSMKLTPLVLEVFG
Description: as §1

[2] = photophysical characterization (photo‐switching, thermal relaxation); assay type: physicochemical; conditions: alternating irradiation at 365 and 465 nm; 25 µM solution in DMSO
Description: as §1

IC50 (VDR): 600 ± 100 nM
reversible switching between (E)‐ and (Z)‐states over multiple cycles [2]: no fatigue
Structure (SMILES): CCCc1cc(C(O)(CC)CC)ccc1-c1ccc(/N=N/c2ccc3cc(C(=O)O)ccc3c2)cc1C [compound 10]
activity on nuclear receptors related to VDR [1]: no activity
